Drawing on ChEMBL document CHEMBL1142144, “Semimechanistic pharmacokinetic/pharmacodynamic model for assessment of activity of antibacterial agents from time-kill curve experiments” (2007), this text covers MIC for five compounds.

The term MIC denotes the lowest concentration that inhibits growth of the organism.

Values after ≈ are worked out from the molar mass of the structure shown.

The test has as its system Streptococcus pyogenes. Kind of test: Antibacterial activity against Streptococcus pyogenes M12 by time-kill curve assay. The test is classed as functional.

Regarding `CO/N=C(\C(=O)N[C@@H]1C(=O)N2C(C(=O)O)=C(COC(N)=O)CS[C@H]12)c1ccco1` [CEFUROXIME], inhibition of growth (MIC) required 0.0313 µg/mL (≈ 0.0738 µM).

`CC[C@H]1OC(=O)[C@H](C)[C@@H](O[C@H]2C[C@@](C)(OC)[C@@H](O)[C@H](C)O2)[C@H](C)[C@@H](O[C@@H]2O[C@H](C)C[C@H](N(C)C)[C@H]2O)[C@](C)(O)C[C@@H](C)C(=O)[C@H](C)[C@@H](O)[C@]1(C)O` [ERYTHROMYCIN] gave an MIC of 0.125 µg/mL (≈ 0.17 µM).

`COc1c(N2C[C@@H]3CCCN[C@@H]3C2)c(F)cc2c(=O)c(C(=O)O)cn(C3CC3)c12` [MOXIFLOXACIN] gave a minimum inhibitory concentration (MIC) of 0.125 µg/mL (≈ 0.311 µM).

As to `CC1(C)S[C@@H]2[C@H](NC(=O)Cc3ccccc3)C(=O)N2[C@H]1C(=O)O` [PENICILLIN G], it took 0.012 µg/mL (≈ 0.0359 µM) to inhibit growth (MIC).

As for `CN[C@H](CC(C)C)C(=O)N[C@H]1C(=O)N[C@@H](CC(N)=O)C(=O)N[C@H]2C(=O)N[C@H]3C(=O)N[C@H](C(=O)N[C@H](C(=O)O)c4cc(O)cc(O)c4-c4cc3ccc4O)[C@H](O)c3ccc(c(Cl)c3)Oc3cc2cc(c3O[C@@H]2O[C@H](CO)[C@@H](O)[C@H](O)[C@H]2O[C@H]2C[C@](C)(N)[C@H](O)[C@H](C)O2)Oc2ccc(cc2Cl)[C@H]1O` [VANCOMYCIN], the MIC came out at 0.25 µg/mL (≈ 0.173 µM).
